Source: patent US9744164B2, “Neuroprotective polyphenol analogs” (Salk Institute for Biological Studies, priority 2011, dated 2017)

Assays:
[1] = system: primary mouse cortical neurons; assay: primary cortical cell glutamate excitotoxicity assay; assay type: cell-based; settings: E14 mouse primary cortical neurons, 10 μM glutamate 10 min, Baicalein 0.2-5 μM, MTT 24 hr
Method: FIG. 5B—excitotoxicity assay was done with E14 mouse primary cortical neuron cultures. After 11 days of culture, cells were exposed to 10 μM glutamate for 10 min, followed by the addition of varying concentrations of Baicalein (0.2-5 μM). Cell viability was determined 24 hr later with a standard MTT assay.
Excitotoxicity cell assay: Primary cultures of cortical neurons that die due to excitotoxicity were prepared as described previously. Briefly, BALB/c mouse embryo cortices were minced and treated with 0.1% trypsin for 20 min. After centrifugation, the cells are resuspended in 827 Neurobasal medium (Invitrogen) plus 10% fetal calf serum and are dissociated by repeated pipetting through a 1 mL blue Eppendorf pipette tip. Then the cells are plated at 1×10^5 cells per well in 96-well poly-L-lysine and laminin-coated microtiter plates (Becton Dickinson, Bedford, Mass., USA) in 827 Neurobasal plus 10% fetal calf serum and 20% glial growth-conditioned medium. Two days later the medium is aspirated and replaced by serum-free 827 Neurobasal medium plus 10 μg/mL cytosine arabinoside. The cultures are used without media change 11 days after plating and are essentially free of astrocytes. They are exposed to 10 μM glutamate followed by varying concentrations of the compounds. Cell viability is determined 24 h later using […]. […]

[2] = system: PC12 cells; assay: glucose starvation assay; assay type: cell-based; settings: PC12 cells starved for glucose, MTT 24 hr
Method: FIG. 5C—PC12 cells were glucose-deprived then were incubates in the absence or presence of Baicalein. Cell viability was determined 24 hr later using the MTT assay. […] When these cells are starved for glucose, there is approximately 70% maximal survival in the presence of NGF. Baicalein promotes over 80% survival (FIG. 5C).

[3] = system: RGC-5 nerve cells; assay: chemical ischemia model (IAA) in RGC-5 cells; assay type: cell-based; settings: RGC-5, 30 μM IAA 2 hr, Baicalein 5-25 μM, also added 2 hrs after insult
Method: FIG. 5D—RGC-5 nerve cells were treated with 30 μM iodoacetic acid for 2 hr in the presence or absence of 5-25 μM Baicalein. In some experiments, Baicalein was added 2 hr after the ischemic event. Cell survival (%) was measured after 24 hr by the MTT assay. Baicalein added before (□) or 2 hr after (●) ischemia. […] When these cells are starved for glucose, there is approximately 70% maximal survival in the presence of NGF. Baicalein promotes over 80% survival (FIG. 5C).

[4] = system: N9 microglial cells; assay: anti-inflammatory assay, LPS-induced microglial activation (NO release); assay type: cell-based, mouse; settings: bacterial lipopolysaccharide, derivative 1-10 μM, 24 hr
In short: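 Mouse N9 microglia in DME/7.5% DFCS stimulated with 10 μg/ml LPS alone or with derivatives (1-10 μM) for 24 hr. NO in cleared medium measured by Griess reagent, 10 min at room temperature, absorbance at 550 nm. Fisetin (10 μM) as positive control.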

[5] = system: mice; settings: oral dose; cited from earlier work
[6] = system: Akita mouse; settings: Maher et al. 2011; cited from earlier work
[7] = Shia, et al. 2009; cited from earlier work

| Structure (SMILES) | microglia (anti-inflammatory activity) [4] [%] | also measured |
| --- | --- | --- |
| O=c1cc(-c2ccccc2)oc2cc(O)c(O)c(O)c12 [Baicalein, 5,6,7-trihydroxyflavone] |  | cells rescued [1]: about 35%; survival [2]: over 80%; cell death in chemical ischemia model [3]: prevents cell death |
| O=c1c(O)c(-c2ccc(O)c(O)c2)oc2ccccc12 [CMS-04P, reference compound] | 80 |  |
| COc1cc(-c2ccc(O)c(O)c2)nc2ccccc12 [CMS-007, 4-methoxy-2-(3,4-dihydroxyphenyl)quinoline] | 85 |  |
| CCOc1cc(-c2ccc(O)c(O)c2)nc2ccccc12 [CMS-023, 4-ethoxy-2-(3,4-dihydroxyphenyl)quinoline] | 90 |  |
| CC(C)Oc1cc(-c2ccc(O)c(O)c2)nc2ccccc12 [CMS-024, 4-isopropoxy-2-(3,4-dihydroxyphenyl)quinoline] | 80 |  |
| COc1ccc(/C=C/C(=O)c2cc(C)c(C)cc2O)cc1OCc1ccccc1 [CMS-086, (E)-3-(3-(benzyloxy)-4-methoxyphenyl)-1-(2-hydroxy-4,5-dimethylphenyl)prop-2-en-1-one] | 70 |  |
| Oc1ccc(-c2cc(OC3CCCC3)c3ccccc3n2)cc1O [CMS-121, 4-cyclopentyloxy-2-(3,4-dihydroxyphenyl)quinoline] | 82 |  |
| O=c1c(O)c(-c2ccc(N3CCCC3)c(O)c2)oc2c1ccc1ccccc12 [CMS-140, 3-hydroxy-2-(3-hydroxy-4-(pyrrolidin-1-yl)phenyl)-4H-benzo[h]chromen-4-one] | 50 |  |
| O=c1c(O)c(-c2ccc(O)c(O)c2)oc2cc(O)ccc12 [Fisetin, 3,7,3′,4′-tetrahydroxy flavone] | 80 | memory [5]: potentiates memory equally as well as rolipram; elevation of blood sugar [6]: no effect; kidney hypertrophy and albuminuria [6]: reduced; bioavailability [7]: poor |
